The values below come from patent publication US7956053B2, “Inhibitors of tyrosine kinases” (Novartis AG, priority 2002, dated 2011).

One assay concerns the target KDR (Homo sapiens, UniProt P35968). Kind of assay: Enzymatic KDR in vitro inhibition. Type of assay: biochemical. The method, then: Test for activity against VEGF-receptor tyrosine kinase. The test is conducted using Flt-1 VEGF-receptor tyrosine kinase. The detailed procedure is as follows: 30 μL kinase solution (10 ng of the kinase domain of Flt-1, Shibuya et al., Oncogene 5, 519-24 [1990]) in 20 mM Tris.HCl pH 7.5, 3 mM manganese dichloride (MnCl2), 3 mM magnesium chloride (MgCl2), 10 μM sodium vanadate, 0.25 mg/mL polyethylenglycol (PEG) 20000, 1 mM dithiothreitol and 3 μg/μL poly(Glu,Tyr) 4:1 (Sigma, Buchs, Switzerland), 8 μM [^33P]-ATP (0.2 μCi), 1% DMSO, and 0 to 100 μM of the compound to be tested are incubated together for 10 minutes at room temperature. The reaction is then terminated by the addition of 10 μL 0.25 M ethylenediaminetetraacetate (EDTA) pH 7. Using a multichannel dispenser (LAB SYSTEMS, USA), an aliquot of 20 μL is applied to a PVDF (=polyvinyl difluoride) Immobilon P membrane (Millipore, Bedford, USA), through a Gibco-BRL microtiter filter manifold and connected to a vacuum. Following complete elimination of the liquid, the membrane is washed 4 times successively in a bath containing 0.5% phosphoric acid (H3PO4) and once with ethanol, incubated for 10 minutes each time while shaking, then mounted in a Hewlett Packard TopCount Manifold and the radioactivity measured after the addition of 10 μL Microscint® (β-scintillation counter liquid). IC50-values are determined by linear regression analysis of the percentages for the inhibition of each compound in at least four concentrations (as a rule 0.01, 0.1, 1.0 and 10 μmol).
(§1) Enzymatic (c-Abl, KDR, Flt3) in vitro inhibition data are presented as % inhibition at 10 μM. The measurements are made as described above in the general description.

For the next assay, the target named is T1, c-Abl (Homo sapiens, UniProt P00519).
T1 construct: The His-tagged kinase domain of c-Abl is cloned and expressed in the baculovirus/Sf9 system; His; made in house; host or cells: baculovirus/Sf9
T1 sequence (P00519 242-493 limits assumed): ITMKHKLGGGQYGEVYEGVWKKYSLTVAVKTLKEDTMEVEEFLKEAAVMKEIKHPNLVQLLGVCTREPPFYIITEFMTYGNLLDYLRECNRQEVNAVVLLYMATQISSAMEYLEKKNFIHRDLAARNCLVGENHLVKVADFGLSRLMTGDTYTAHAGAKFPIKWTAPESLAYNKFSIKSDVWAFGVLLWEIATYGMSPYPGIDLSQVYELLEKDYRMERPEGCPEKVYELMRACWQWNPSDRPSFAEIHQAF
Kind of assay: Test for activity against c-Abl protein tyrosine kinase (filter binding assay). The format is biochemical. The method, then:
Test for activity against c-Abl protein tyrosine kinase. The test is conducted as a filter binding assay as follows: The His-tagged kinase domain of c-Abl is cloned and expressed in the baculovirus/Sf9 system as described by Bhat et al., J Biol. Chem. 272, 16170-5 (1997). A protein of 37 kD (c-Abl kinase) is purified by a two-step procedure over a Cobalt metal chelate column followed by an anion exchange column with a yield of 1-2 mg/L of Sf9 cells. The purity of the c-Abl kinase is >90% as judged by SDS-PAGE after Coomassie blue staining. The assay contains: c-Abl kinase (50 ng), 20 mM Tris.HCl, pH 7.5, 10 mM MgCl2, 10 μM Na3VO4, 1 mM DTT and 0.06 μCi/assay [γ^33 P]-ATP (5 μM ATP) using 30 μg/mL poly-Ala,Glu,Lys,Tyr-6:2:5:1 (Poly-AEKY, Sigma P1152) in the presence of 1% DMSO, total volume of 30 μL. Reactions are terminated by adding 10 μL of 250 mM EDTA, and 30 μL of the reaction mixture is transferred onto Immobilon-PVDF membrane (Millipore, Bedford, Mass., USA) previously soaked for 5 min with methanol, rinsed with water, then soaked for 5 min with 0.5% H3PO4 and mounted on vacuum manifold with disconnected vacuum source. After spotting all samples, vacuum is connected and each well rinsed with 200 μL 0.5% H3PO4. Membranes are removed and washed on a shaker with 0.5% H3PO4 (4 times) and once with ethanol. Membranes are counted after drying at ambient temperature, mounting in Packard TopCount 96-well frame, and addition of 10 μL/well of Microscint™ (Packard).
as §1

Sequence of KDR (P35968 20-1356): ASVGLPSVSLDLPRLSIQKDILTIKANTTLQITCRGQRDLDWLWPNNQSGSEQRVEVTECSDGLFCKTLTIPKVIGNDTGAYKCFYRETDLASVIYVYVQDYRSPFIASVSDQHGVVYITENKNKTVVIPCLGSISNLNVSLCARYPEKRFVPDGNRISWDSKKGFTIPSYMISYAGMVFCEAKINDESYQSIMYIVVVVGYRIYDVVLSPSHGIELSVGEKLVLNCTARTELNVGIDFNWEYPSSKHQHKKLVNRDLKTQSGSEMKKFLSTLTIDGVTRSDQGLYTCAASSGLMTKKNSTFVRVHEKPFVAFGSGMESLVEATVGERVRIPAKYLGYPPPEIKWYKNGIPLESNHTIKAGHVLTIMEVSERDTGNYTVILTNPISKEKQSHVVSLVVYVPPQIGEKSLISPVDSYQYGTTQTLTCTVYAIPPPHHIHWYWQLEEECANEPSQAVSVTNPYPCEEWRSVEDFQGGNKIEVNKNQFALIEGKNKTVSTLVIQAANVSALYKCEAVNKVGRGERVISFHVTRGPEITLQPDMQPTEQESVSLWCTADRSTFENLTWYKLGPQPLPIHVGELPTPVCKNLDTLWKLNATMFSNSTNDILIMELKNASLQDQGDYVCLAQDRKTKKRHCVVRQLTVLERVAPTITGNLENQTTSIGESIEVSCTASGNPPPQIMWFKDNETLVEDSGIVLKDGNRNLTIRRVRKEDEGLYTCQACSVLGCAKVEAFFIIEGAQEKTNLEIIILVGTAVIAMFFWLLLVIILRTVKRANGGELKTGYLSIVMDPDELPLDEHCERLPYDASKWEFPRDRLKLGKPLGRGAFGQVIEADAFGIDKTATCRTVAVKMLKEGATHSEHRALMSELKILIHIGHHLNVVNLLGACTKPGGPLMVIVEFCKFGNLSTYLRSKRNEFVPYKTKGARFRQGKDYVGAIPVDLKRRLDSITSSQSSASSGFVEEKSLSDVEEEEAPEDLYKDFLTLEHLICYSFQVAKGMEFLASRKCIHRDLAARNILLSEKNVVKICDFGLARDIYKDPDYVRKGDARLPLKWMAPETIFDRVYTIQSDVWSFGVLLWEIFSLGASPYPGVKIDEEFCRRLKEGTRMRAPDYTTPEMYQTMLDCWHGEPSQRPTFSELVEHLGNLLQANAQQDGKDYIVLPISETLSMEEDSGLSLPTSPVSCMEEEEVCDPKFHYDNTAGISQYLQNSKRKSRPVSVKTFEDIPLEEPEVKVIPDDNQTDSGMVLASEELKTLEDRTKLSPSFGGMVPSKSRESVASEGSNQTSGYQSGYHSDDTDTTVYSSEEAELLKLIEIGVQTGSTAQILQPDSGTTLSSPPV

In general, inhibition refers to how much of the control response was suppressed. For `Cc1ccc(C(=O)Nc2cccc3c2CCCC3)cc1Nc1nccc(-c2cccnc2)n1` [Example 53, 4-Methyl-3-[[4-(3-pyridinyl)-2-pyrimidinyl]amino]-N-(5,6,7,8-tetrahydro-1-naphthalenyl)benzamide], the values for the inhibition at 10 µM at KDR and at c-Abl were 79% and 88%, respectively.

For the molecule `Cc1ccc(C(=O)NCCCn2ccnc2)cc1Nc1nccc(-c2cccnc2)n1` [Example 17, N-[3-(1H-Imidazol-1-yl)propyl]-4-methyl-3-[[4-(3-pyridinyl)-2pyrimidinyl]amino]benzamide], the inhibition at 10 µM against KDR stood at 62%; at c-Abl, 54%.

In the case of `Cc1ccc(C(=O)N[C@H]2CCCCNC2=O)cc1Nc1nccc(-c2cccnc2)n1` [Example 14, N-[(3S)-Hexahydro-2-oxo-1H-azepin-3-yl]-4-methyl-3-[[4-(3-pyridinyl)-2-pyrimidinyl]amino]benzamide], the inhibition at 10 µM at KDR came to 54%; at c-Abl, 49%.

Take `Cc1ccc(C(=O)NCCc2cnc(O)nc2O)cc1Nc1nccc(-c2cccnc2)n1` [Example 12, N-[2-(2,4-Dihydroxy-5-pyrimidinyl)ethyl]-4-methyl-3-[[4-(3-pyridinyl)-2-pyrimidinyl]amino]benzamide]: the inhibition at 10 µM on KDR came to 33%; on c-Abl, 22%.

`Cc1ccc(C(=O)NCCN2CCOCC2)cc1Nc1nccc(-c2cccnc2)n1` [Example 10, 4-Methyl-N-(2-morpholinoethyl)-3-[[4-(3-pyridinyl)-2-pyrimidinyl]amino]-benzamide]: the inhibition at 10 µM was found to be 48% at KDR and 57% on c-Abl.

With `Cc1ccc(C(=O)NCC(c2ccccc2)c2ccccc2)cc1Nc1nccc(-c2cccnc2)n1` [Example 49, N-(2,2-Diphenylethyl)-4-methyl-3-[[4-(3-pyridinyl)-2-pyrimidinyl]amino]-benzamide], the inhibition at 10 µM against KDR amounted to 37%; at c-Abl, 72%.

For `Cc1ccc(C(=O)N[C@H](C)C(=O)OC(C)(C)C)cc1Nc1nccc(-c2cccnc2)n1` [Example 33, N-[4-Methyl-3-[[4-(3-pyridinyl)-2-pyrimidinyl]amino]benzoyl]-(D)-alanine 1,1-dimethylethyl ester], the inhibition at 10 µM came to 51% at KDR and 97% on c-Abl.

`Cc1ccc(C(=O)NCCc2cccn2C)cc1Nc1nccc(-c2cccnc2)n1` [Example 7, 4-Methyl-N-[2-(1-methyl-1H-pyrrol-2-yl)ethyl]-3-[[4-(3-pyridinyl)-2-pyrimidinyl]amino]benzamide]: the inhibition at 10 µM at KDR was 45%; at c-Abl, 72%.

Consider `COc1ccc(N2CCN(C(=O)c3ccc(C)c(Nc4nccc(-c5cccnc5)n4)c3)CC2)cc1` [Example 36, 1-(4-Methoxyphenyl)-4-[4-methyl-3-[[4-(3-pyridinyl)-2-pyrimidinyl]amino]-benzoyl]piperazine], for which the inhibition at 10 µM stood at 77% on KDR and 57% on c-Abl.

In the case of `CCOC(=O)C(NC(=O)c1ccc(C)c(Nc2nccc(-c3cccnc3)n2)c1)C(=O)OCC` [Example 65, [[4-Methyl-3-[[4-(3-pyridinyl)-2-pyrimidinyl]amino]benzoyl]amino]propanedioic acid diethyl ester], the values for the inhibition at 10 µM on KDR and on c-Abl were 60% and 96%, respectively.

Consider `Cc1ccc(C(=O)N(C)Cc2ccccc2)cc1Nc1nccc(-c2cccnc2)n1` [Example 21, N,4-Dimethyl-N-(phenylmethyl)-3-[[4-(3-pyridinyl)-2-pyrimidinyl]amino]-benzamide], for which the values for the inhibition at 10 µM against KDR and on c-Abl were 93% and 30%, respectively.

Regarding `Cc1ccc(C(=O)N2CCN(CC(=O)N3CCOCC3)CC2)cc1Nc1nccc(-c2cccnc2)n1` [Example 41, 4-{{4-[4-Methyl-3-[[4-(3-pyridinyl)-2-pyrimidinyl]amino]benzoyl]-1-piperazinyl}acetyl}morpholine], the inhibition at 10 µM was 52% against KDR and 13% at c-Abl.

For the molecule `CCOCCNC(=O)c1ccc(C)c(Nc2nccc(-c3cccnc3)n2)c1` [Example 56, N-(2-Ethoxyethyl)-4-methyl-3-[[4-(3-pyridinyl)-2-pyrimidinyl]amino]benzamide], the inhibition at 10 µM against KDR turned out to be 44%; at c-Abl, 40%.

As for `Cc1ccc(C(=O)NCC2CC2)cc1Nc1nccc(-c2cccnc2)n1` [Example 18, N-(Cyclopropylmethyl)-4-methyl-3-[[4-(3-pyridinyl)-2-pyrimidinyl]amino]-benzamide], the inhibition at 10 µM on KDR was determined as 62%; at c-Abl, 56%.

For `Cc1ccc(C(=O)NCC(N)=O)cc1Nc1nccc(-c2cccnc2)n1` [Example 26, N-(2-Amino-2-oxoethyl)-4-methyl-3-[[4-(3-pyridinyl)-2-pyrimidinyl]amino]benzamide], the inhibition at 10 µM on KDR was determined as 56%; at c-Abl, 55%.

Consider `COCCNC(=O)c1ccc(C)c(Nc2nccc(-c3cccnc3)n2)c1` [Example 19, N-(2-methoxyethyl)-4-methyl-3-[[4-(3-pyridinyl)-2-pyrimidinyl]amino]benzamide], for which the inhibition at 10 µM against KDR was 33%; on c-Abl it was 41%.

Consider `COCCN(CCOC)C(=O)c1ccc(C)c(Nc2nccc(-c3cccnc3)n2)c1` [Example 45, N,N-bis(2-Methoxyethyl)-4-methyl-3-[[4-(3-pyridinyl)-2-pyrimidinyl]amino]benzamide], for which the inhibition at 10 µM stood at 61% against KDR and 34% at c-Abl.

With `COc1ccc(CNC(=O)c2ccc(C)c(Nc3nccc(-c4cccnc4)n3)c2)cc1` [Example 8, N-[(4-Methoxyphenyl)methyl]-4-methyl-3-[[4-(3-pyridinyl)-2-pyrimidinyl]amino]benzamide], the figures for the inhibition at 10 µM against KDR and at c-Abl were 81% and 70%, respectively.

Turning to `Cc1ccc(C(=O)NC2CCc3ccccc32)cc1Nc1nccc(-c2cccnc2)n1` (centres unmarked) [Example 50, N-(2,3-Dihydro-1H-inden-1-yl)-4-methyl-3-[[4-(3-pyridinyl)-2-pyrimidinyl]amino]benzamide], the inhibition at 10 µM worked out at 83% on KDR and 87% on c-Abl.

Turning to `Cc1ccc(C(=O)NCCCN(C)c2ccccc2)cc1Nc1nccc(-c2cccnc2)n1` [Example 63, 4-Methyl-N-[3-(methylphenylamino)propyl]-3-[[4-(3-pyridinyl)-2-pyrimidinyl]-amino]benzamide], the inhibition at 10 µM against KDR turned out to be 82%; at c-Abl, 74%.

On to `Cc1ccc(C(=O)N2CCN(Cc3ccccc3)CC2)cc1Nc1nccc(-c2cccnc2)n1` [Example 39, 1-[4-Methyl-3-[[4-(3-pyridinyl)-2-pyrimidinyl]amino]benzoyl]-4-(phenylmethyl)-piperazine], for which the inhibition at 10 µM turned out to be 74% on KDR and 64% on c-Abl.

Consider `Cc1ccc(C(=O)N[C@@H](Cc2ccccc2)C(=O)OC(C)(C)C)cc1Nc1nccc(-c2cccnc2)n1` [Example 32, N-[4-Methyl-3-[[4-(3-pyridinyl)-2-pyrimidinyl]amino]benzoyl]-(L)-phenylalanine 1,1-dimethylethyl ester], for which the inhibition at 10 µM against KDR was 37%; on c-Abl, 90%.
